According to patent publication US20120277211A1, “METHODS AND COMPOSITIONS FOR THE TREATMENT OF PSYCHOTIC DISORDERS THROUGH THE IDENTIFICATION OF THE SULT4A1-1 HAPLOTYPE” (priority 2009, published 2012):
Like-named read-outs stand apart in the source and are kept apart here. Marks after values point to notes of the source that are not given here.

Tests used:
[1] = test system: unsegmented patient populations; details: cited from earlier work
[2] = test system: Caucasian schizophrenia patients; experiment: CATIE: time to discontinuation for all causes by SULT4A1-1 status; format: in vivo, human
Excerpt: The primary endpoint for the CATIE study was time to discontinuation for all causes (Lieberman et al., 2005). Thus the inventors evaluated the effect of SULT41-1 status on this important parameter.

[3] = test system: Caucasian schizophrenia patients; experiment: CATIE Phase I: change in total PANSS (LOCF) by SULT4A1-1 haplotype status, Caucasians; format: in vivo, human; details: for Percent change from baseline PANSS scores, mean (standard deviation): Phase I; for Percent change from baseline PANSS scores, mean (standard deviation) / Number of individuals with change in total PANSS ≦−20% (responders) / Number of individuals with change in total PANSS ≧−20% (non-responders) / Responders: LOCF; for Number of individuals with change in total PANSS ≦−20% (responders) / Number of individuals with change in total PANSS ≧−20% (non-responders) / Responders: CATIE Caucasians; for Responders: change in PANSS ≦−20%
Excerpt: There are several different metrics for quantifying response in clinical trials of antipsychotic medications. The most commonly used psychometric instrument is the Positive and Negative Syndrome Scale (PANSS), a 30-item semi-quantitative instrument scored by clinical professionals (Kay et al., 1987). The greater the decrease in PANSS score, the better the clinical response. The most direct measure of clinical response is absolute change in PANSS score. In addition to absolute change, the improvement is often reported as a percentage change from baseline PANSS score.
A decrease of at least 20% in total PANSS is one commonly used threshold for response (Leucht et al., 2009).
The design of the CATIE study has been described in detail by others (Lieberman et al., 2005; Stroup et al., 2003). […] A total of 738 subjects consented to provide DNA for genetic study. […] Retrospective genetic analyses, judged to be exempt from human studies requirements by an IRB, were conducted in the current study.
All tested patients were studied using well established clinical endpoints comparing baseline, intermediate, and last observation carried forward (LOCF) for the PANSS scores using CATIE data. LOCF analysis is a commonly used clinical endpoint for clinical trials for neuropsychiatric drugs, with changes in PANSS scores of between negative 20% and negative 30% used as typical endpoints to indicate clinically significant response (Leucht et al., 2009). To remove time on drug as a variable for the CATIE trial, analysis was limited to only those patients who were randomized to a different drug following the initial washout period (drug switchers).
The CATIE clinical data set included baseline PANSS scores based on clinical assessments prior to initiation of the assigned therapy, but following the washout period for any patients previously on antipsychotic medication. Follow up PANSS data for the CATIE trial were collected at each visit as described in detail by others (Stroup et al., 2003).
Since follow-up on subjects was not done at uniform time intervals, analysis was done using the last observation for each patient in treatment Phase I of the trial as the measure of response (last observation carried forward, LOCF). Main effect and interaction terms between the SULT4A1-1 haplotype and drug therapy were included in the linear model. A pre-determined set of contrasts for differences in percent change PANSS by haplotype within each drug therapy (three comparisons) and by drug therapy within each haplotype (six comparisons) were evaluated, with adjustment for multiple-comparisons using the step-up false-discovery rate (FDR) controlling procedure (Benjamini and Hochberg, 1995). A sub-analysis omitting those patients who were randomized to the same antipsychotic drug therapy was also conducted.

[4] = test system: Caucasian schizophrenia patients; experiment: CATIE: hospitalization due to exacerbation of psychosis by SULT4A1-1 status; format: in vivo, human
Excerpt: To assess if SULT4A1-1 status impacts the risk of hospitalization in Caucasians, the inventors assigned SULT4A1-1 status to each CATIE subject and evaluated hospitalization events due to exacerbation of psychosis. For this analysis, the inventors assigned a dichotomous value (positive or negative) for hospitalization status to subjects in each phase of the trial based on only the first hospitalization event for a given patient in that phase. Patients participating in Phases 1, 2, and/or 3 were included in the totals for the appropriate drug.
A Kaplan-Meier survival analysis was performed to determine whether there was a difference between the survival (hospitalization) rates for the SULT4A1-1 negative and SULT4A1-1 positive patient populations treated with each of the atypical antipsychotics. Survival plots model the fraction of the population that survived (i.e., no hospitalization event) as a function of time.

schizophrenia patients [5] = details: Phase II; for Responders: decrease PANSS ≧20%, LOCF
[6] = test system: African American schizophrenia patients; experiment: CATIE: change in total PANSS (LOCF) by SULT4A1-1 haplotype status, African Americans; format: in vivo, human; details: for Number of individuals with change in total PANSS ≦−20% (responders) / Number of individuals with change in total PANSS ≧−20% (non-responders): LOCF
Procedure: The design of the CATIE study has been described in detail by others (Lieberman et al., 2005; Stroup et al., 2003). […] A total of 738 subjects consented to provide DNA for genetic study. […] Retrospective genetic analyses, judged to be exempt from human studies requirements by an IRB, were conducted in the current study. All tested patients were studied using well established clinical endpoints comparing baseline, intermediate, and last observation carried forward (LOCF) for the PANSS scores using CATIE data. […] To remove time on drug as a variable for the CATIE trial, analysis was limited to only those patients who were randomized to a different drug following the initial washout period (drug switchers).

schizophrenia patients [7] = experiment: CATIE: months of successful treatment measured by the CGI scale (TMSUCC1); format: in vivo, human
Excerpt: The CATIE clinical data set included Clinical Global Impression (CGI) Scale, an observer-provided assessment of the psychiatric health of the patient (Stroup et al., 2003; Guy 1976). Patients are rated with the CGI Scale from 1 to 7, with higher scores indicating greater severity of illness. The CATIE study provided a response variable that measured the time (in months) of successful treatment as measured by the CGI scale (“TMSUCC1” in the CATIE data).

[8] = comparator = labelled drug in SULT4A1-1+ patients
[9] = complete sample, SULT4A1-1+, labelled drug vs Risperidone
[10] = complete sample, within drug, SULT4A1-1+ vs SULT4A1-1−
[11] = randomized to a different medication, SULT4A1-1+, labelled drug vs Risperidone
[12] = randomized to a different medication, within drug, SULT4A1-1+ vs SULT4A1-1−

OCCOCCN1CCN(C2=Nc3ccccc3Sc3ccccc32)CC1 [Quetiapine]
Effect Size vs. FGA ([1]; first generation antipsychotics, Davis et al. (2003)): 0.01 | Effect Size vs. Placebo ([1]; meta-analysis, Leucht et al. (2009), negative = greater reduction in PANSS): −0.42 | Mean difference in total PANSS score between olanzapine and labelled drug, Meta-analysis ([1]; unsegmented populations, Leucht et al. (2009)): −3.7 | Time to discontinuation, mean ([2]; SULT4A1-1 negative): 8.6*** Months | Time to discontinuation, mean ([2]; SULT4A1-1 positive): 10.3 Months | Mean difference in total PANSS score between olanzapine and labelled drug, CATIE SULT4A1-1+ ([3]; SULT4A1-1+): −12.9 | Percent change from baseline PANSS scores, mean (standard deviation) ([3]; SULT4A1-1+, complete sample): −4.52 (17.6) % | Percent change from baseline PANSS scores, mean (standard deviation) ([3]; SULT4A1-1+, patients randomized to a different medication): −6.44 (19.0) % | DELTA PANSS % (mean change in PANSS score from baseline to LOCF) ([3]; SULT4A1-1 negative): 0*** % | Number of individuals with change in total PANSS ≦−20% (responders) ([3]; SULT4A1-1 negative): 13 | Number of individuals with change in total PANSS ≧−20% (non-responders) ([3]; SULT4A1-1 negative): 50 | Responders ([3]; SULT4A1-1 negative): 20.6%** | DELTA PANSS % (mean change in PANSS score from baseline to LOCF) ([3]; SULT4A1-1 positive): −9** % | Number of individuals with change in total PANSS ≧−20% (non-responders) ([3]; SULT4A1-1 positive): 11 | Number of individuals with change in total PANSS ≦−20% (responders) ([3]; SULT4A1-1 positive, randomized to a different drug): 7 | Responders ([3]; SULT4A1-1 positive): 38.8% | Mean difference in total PANSS score between olanzapine and labelled drug, CATIE SULT4A1-1− ([3]; SULT4A1-1−): −3.8 | Percent change from baseline PANSS scores, mean (standard deviation) ([3]; SULT4A1-1−, complete sample): 0.84 (26.5) % | Percent change from baseline PANSS scores, mean (standard deviation) ([3]; SULT4A1-1−, patients randomized to a different medication): 0.4 (26.7) % | Mean difference in total PANSS score between olanzapine and labelled drug, CATIE unsegmented ([3]; Unsegmented): −6.2 | Effect size: olanzapine SULT4A1-1+ vs comparator group [3, 8]: 0.75 | Mean difference (95% CI) in delta PANSS: olanzapine SULT4A1-1+ minus comparator group [3, 8]: −14.9 (−28.3 to −1.5) | Difference in percent change in PANSS score (first group minus second) [3, 9]: −1.0% | Difference in percent change in PANSS score, corrected for age, age of onset and sex [3, 9]: −0.54% | Difference in percent change in PANSS score (first group minus second) [3, 10]: −5.4% | Difference in percent change in PANSS score, corrected for age, age of onset and sex [3, 10]: −2.65% | Effect Size attributable to SULT4A1-1 status in CATIE ([3]; olanzapine-treated SULT4A1-1 positive versus labelled drug-treated SULT4A1-1 positive): −0.75^b | Difference in percent change in PANSS score (first group minus second) [3, 11]: −4.6% | Difference in percent change in PANSS score, corrected for age, age of onset and sex [3, 11]: −3.33% | Difference in percent change in PANSS score (first group minus second) [3, 12]: −6.8% | Difference in percent change in PANSS score, corrected for age, age of onset and sex [3, 12]: −2.91% | HOSP, number of patients hospitalized ([4]; SULT4A1-1 negative): 24 | HOSP, rate of hospitalization ([4]; SULT4A1-1 negative): 19.5% | HOSP, number of patients hospitalized ([4]; SULT4A1-1 positive): 1 | HOSP, rate of hospitalization ([4]; SULT4A1-1 positive): 2.9% | HOSP, rate of hospitalization ([4]; Unsegmented): 15.9% | HOSP, number of patients hospitalized ([4]; Unsegmented, Phases 1, 2 and/or 3, first event): 25 | Kaplan-Meier: difference between survival (no hospitalization) rates of SULT4A1-1 negative and positive patients ([4]; per drug): significant difference | % Responders (schizophrenia patients [5]; SULT4A1-1 Negative): 9.0% | Nonresponders (schizophrenia patients [5]; SULT4A1-1 Negative): 10 | Responders (schizophrenia patients [5]; SULT4A1-1 Negative): 1 | % Responders (schizophrenia patients [5]; SULT4A1-1 Positive): 0% | Nonresponders (schizophrenia patients [5]; SULT4A1-1 Positive): 1 | Responders (schizophrenia patients [5]; SULT4A1-1 Positive): 0 | Responders ([6]; SULT4A1-1 negative): 26.5% | Number of individuals with change in total PANSS ≦−20% (responders) ([6]; SULT4A1-1 negative): 9 | Number of individuals with change in total PANSS ≧−20% (non-responders) ([6]; SULT4A1-1 negative): 25 | Responders ([6]; SULT4A1-1 positive): 33.3% | Number of individuals with change in total PANSS ≦−20% (responders) ([6]; SULT4A1-1 positive): 2 | Number of individuals with change in total PANSS ≧−20% (non-responders) ([6]; SULT4A1-1 positive): 4 | Length of successful treatment (CGI Months), Mean (schizophrenia patients [7]; SULT4A1-1 negative): 4.22 Months | Length of successful treatment (CGI Months), Mean (schizophrenia patients [7]; SULT4A1-1 positive): 5.96^c Months | Length of successful treatment (CGI Months), Mean (schizophrenia patients [7]; Unsegmented): 4.65 Months
